Measurements published in article PMC5733478, “A Non-imaging High Throughput Approach to Chemical Library Screening at the Unmodified Adenosine-A3 Receptor in Living Cells” (Frontiers in Pharmacology, 2017).
Counter-ions that a name gives are not always drawn.

molecular target: T1, human A3AR (Homo sapiens, UniProt P0DMS8); test: LOPAC library primary screen: single concentration (10 μM) inhibition of 25 nM CA200645 binding, PHERAstar FS; conditions: not given
T1 construct: expressed in transfected cells
T1 sequence (P0DMS8 1-318): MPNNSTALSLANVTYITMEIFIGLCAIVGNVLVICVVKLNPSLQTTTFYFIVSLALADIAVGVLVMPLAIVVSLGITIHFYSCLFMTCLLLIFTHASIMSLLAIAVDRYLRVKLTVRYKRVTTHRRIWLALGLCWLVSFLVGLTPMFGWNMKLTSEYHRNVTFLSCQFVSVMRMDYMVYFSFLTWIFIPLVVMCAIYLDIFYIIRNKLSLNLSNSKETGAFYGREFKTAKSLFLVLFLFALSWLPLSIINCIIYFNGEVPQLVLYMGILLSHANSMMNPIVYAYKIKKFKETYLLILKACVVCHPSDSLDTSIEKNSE

Compound	% 25 nM CA200645 binding
O=C(c1ccc(F)cc1)C1CCN(CCn2c(=O)[nH]c3ccccc3c2=O)CC1 [Ketanserin tartrate]	100.1 ± 15.2%
COc1ccc2c(c1)CC[C@@H]1[C@@H]2CC[C@]2(C)[C@@H](NCCCCCCN3C(=O)C=CC3=O)CC[C@@H]12 [U-73122]	73.1 ± 7.4%
CN(C)CCOC(=O)COc1ccc(Cl)cc1 [Centrophenoxine hydrochloride]	90.4 ± 28.8%
Cc1cc2c(cc1Cl)N(C(=O)Nc1cccc3ncccc13)CC2 [SB-215505]	98.1 ± 14.8%
CC(N)=O [Acetamide]	96.1 ± 7.6%
N=c1ccn2c(n1)O[C@H]1[C@H](O)[C@@H](CO)O[C@H]12 [Ancitabine hydrochloride]	106.9 ± 5.2%
O=C(c1ccc(OCCN2CCCCC2)cc1)c1c(-c2ccc(O)cc2)sc2cc(O)ccc12 [Raloxifene hydrochloride]	90.8 ± 14.0%
C[N+]1(C)CCN(c2ccccc2)CC1.[I-]	102.6 ± 13.3%
NCCCNCCSP(=O)(O)O [Amifostine]	94.6 ± 2.0%
CN(C)CCC(c1ccc(Cl)cc1)c1ccccn1.O=C(O)/C=C\C(=O)O (racemic) [(±)-Chlorpheniramine maleate]	99.2 ± 9.9%
Cc1ccc(N(CC2=NCCN2)c2cccc(O)c2)cc1 [Phentolamine mesylate]	98.9 ± 10.7%
CN(C)CCCN1c2ccccc2Sc2ccc(Cl)cc21 [Chlorpromazine hydrochloride]	92.2 ± 10.3%
CCN1C[C@]2(COC)[C@H](O)C[C@H](OC)[C@@]34[C@@H]5C[C@@]6(O)[C@H](OC(=O)c7ccccc7)[C@@H]5[C@@](OC(C)=O)([C@@H]([C@H](OC)[C@H]23)[C@@H]14)[C@@H](O)[C@@H]6OC [Aconitine]	95.2 ± 4.4%
NC(=O)c1cn(Cc2c(F)cccc2F)nn1 [Rufinamide]	100.9 ± 12.8%
NC(=O)C(=O)O [Sodium Oxamate]	96.5 ± 14.4%
Cl.Nc1c2c(nc3ccccc13)CCCC2	100.2 ± 15.6%
CC(=O)[C@H]1CC[C@H]2[C@@H]3CC=C4C[C@@H](OS(=O)(=O)[O-])CC[C@]4(C)[C@H]3CC[C@]12C.[Na+] [Pregnenolone sulfate sodium]	100.9 ± 23.1%
CC(=O)O[C@]1(C(C)=O)CC[C@H]2[C@@H]3C=C(Cl)C4=CC(=O)[C@@H]5C[C@@H]5[C@]4(C)[C@H]3CC[C@@]21C [Cyproterone acetate]	95.6 ± 2.1%
C[C@H]1C[C@H]2[C@@H]3CCC4=CC(=O)C=C[C@]4(C)[C@@]3(Cl)[C@@H](O)C[C@]2(C)[C@@]1(O)C(=O)CO [Beclomethasone]	93.7 ± 1.6%
O=C(O)CCCCCCCC(=O)O [Azelaic acid]	91.8 ± 5.2%
CC(=O)SCC[N+](C)(C)C.[Cl-] [Acetylthiocholine chloride]	95.7 ± 4.8%
CC1=C(/C=C/C(C)=C/C=C/C(C)=C\C(=O)O)C(C)(C)CCC1 [13-cis-retinoic acid]	85.2 ± 2.9%
CCCN1CCC[C@@H]2Cc3nc(N)ncc3C[C@H]21.Cl.Cl [Quinelorane dihydrochloride]	105.7 ± 9.9%
Cl.Oc1cc2c(cc1O)C(c1ccccc1)CNCC2 (racemic) [(±)-SKF-38393 hydrochloride]	99.4 ± 9.0%
CCCCCCCC/C=C\CCCCCCCC(=O)O [Oleic Acid]	98.9 ± 11.8%

Compound	% 25 nM CA200645 binding
N=C(N)NC(=O)c1nc(Cl)c(N2CCCCCC2)nc1N [5-(N,N-hexamethylene)amiloride]	87.5 ± 4.4%
C=C1C[C@@]23CC[C@H]4[C@@](C)(CCC[C@@]4(C)C(=O)O[C@@H]4O[C@H](CO)[C@@H](O)[C@H](O)[C@H]4O)[C@@H]2CC[C@]1(O[C@@H]1O[C@H](CO)[C@@H](O)[C@H](O)[C@H]1O[C@@H]1O[C@H](CO)[C@@H](O)[C@H](O)[C@H]1O)C3 [Stevioside]	92.4 ± 13.9%
Cc1oncc1C(=O)Nc1ccc(C(F)(F)F)cc1 [Leflunomide]	100.1 ± 5.3%
CCOC(=O)C1=C(C)NC(C)=C(C(=O)OC)C1c1cccc([N+](=O)[O-])c1 (centres unmarked) [Nitrendipine]	96.1 ± 17.4%
C[N+]1(C)C2CCC1CC(OC(=O)c1c[nH]c3ccccc13)C2.[I-] (centres unmarked)	95.6 ± 4.9%
CCCN(CCC)C1Cc2cc(OC)c(OC)cc2C1.O=C(O)/C=C\C(=O)O [U-99194A maleate]	101.3 ± 8.9%
O=c1onc2n1-c1cc(Br)ccc1OC2 [NS 2028]	100.2 ± 8.6%
CN(C)c1nc(N)c(C(=O)NC(=N)N)nc1Cl [5-(N,N-Dimethyl)amiloride hydrochloride]	95.5 ± 2.7%
CCCN(CCC)CCc1ccc(O)c(O)c1 [Dipropyldopamine hydrobromide]	101.8 ± 8.0%
C=CC(N)CCC(=O)O (racemic) [(±)-gamma-Vinyl GABA]	96.9 ± 7.5%
O=C(O)[C@@H]1CCN1 [L-azetidine-2-carboxylic acid]	100.7 ± 4.1%
CCOC(=O)C(C)Oc1cccc2c(=O)n(CC(=O)Nc3ccc4c(c3)OCCO4)ccc12 (centres unmarked) [SID7969543]	94.8 ± 24.3%
Fc1cccc(/C=N/N=C/c2cccc(F)c2)c1 [DFB]	94.8 ± 1.4%
O=[N+]([O-])c1ccc(CNc2nc(NCc3cccc(C(F)(F)F)c3)nc3nc[nH]c23)cc1 [TNP]	61.8 ± 11.7%
C=CCNc1ncnc2ccc(Br)cc12 [SMER28]	86.4 ± 8.7%
c1ccc(C(NCc2cccnc2)(c2ccccc2)c2ccccc2)cc1 [UCL 2077]	52.2 ± 5.4%
COc1ccc([C@@H]2Sc3ccccc3N(CCN(C)C)C(=O)[C@@H]2OC(C)=O)cc1 [Diltiazem hydrochloride]	97.4 ± 8.9%
CC(=O)O[C@H]1Cc2ccccc2N(C(N)=O)c2ccccc21 [BIA 2-093]	110.6 ± 5.0%
CC(C)(C)c1cc(C=C(C#N)C#N)cc(C(C)(C)C)c1O [Tyrphostin A9]	93.2 ± 14.5%
Nc1c(S(=O)(=O)O)cc(Nc2ccc(Nc3nc(Cl)nc(Nc4cccc(S(=O)(=O)O)c4)n3)c(S(=O)(=O)O)c2)c2c1C(=O)c1ccccc1C2=O [Reactive Blue 2]	24.5 ± 2.7%
CC(C)NC(C)Cc1ccc(I)cc1 (centres unmarked) [Iofetamine hydrochloride]	100.8 ± 7.1%
CC1(C)NC(=O)N(c2ccc([N+](=O)[O-])c(C(F)(F)F)c2)C1=O [Nilutamide]	98.7 ± 10.0%
O=C(O)CCC(C(=O)O)N1C(=O)c2ccccc2C1=O [L-Glutamic acid, N-phthaloyl-]	89.4 ± 32.8%
(±)-Ibuprofen	91.4 ± 12.3%

same assay, conditions: % of control wells (1% DMSO and 25 nM CA200645); compounds at 10 µM; […]; mean ± SD, three experiments in duplicate

Compound	% 25 nM CA200645 binding
CN1CCN(CCCN2c3ccccc3Sc3ccc(C(F)(F)F)cc32)CC1 [Trifluoperazine dihydrochloride]	97.1 ± 25.1%

same assay, conditions: % of control wells (1% DMSO and 25 nM CA200645); compounds at 10 µM; whole live cells expressing the A3AR; mean ± SD, three experiments in duplicate

Compound	% 25 nM CA200645 binding
CCOC(=O)[C@]12CC1/C(=N\O)c1ccccc1O2 (mixture of isomers) [CPCCOEt]	88.3 ± 3.9%

same assay, conditions: compounds tested at 10 µM; % of control wells (1% DMSO and 25 nM CA200645); whole live cells expressing the A3AR; mean ± SD, three experiments in duplicate

Compound	% 25 nM CA200645 binding
[H]/N=C(/NC)NCCC[C@H](N)C(=O)O [NG-Monomethyl-L-arginine acetate]	112.2 ± 7.1%
c1ccc(C2CC2)c(OCC2=NCCN2)c1 [Cirazoline hydrochloride]	105.5 ± 7.7%
